Here are results for 12 molecules from patent US20100291089A1, “LIGAND OF REGULATING IMMUNE RESPONSE, AND USE THEREOF IN TREATING AN IMMUNE RESPONSE-RELATED DISEASE” (POSTECH ACADEMY-INDUSTRY FOUNDATION, priority 2005, published 2010).

Test [1] deals with human neutrophils. Put plainly: FACS analysis of surface CD11b expression on neutrophils. In kind it is cell-based. Particulars: 1 μM or 10 μM, 1 hour. Here is the method:
Purified neutrophils were incubated with indicated concentration of PACAP27 (SEQ ID NO:1) for 1 hour. Cells (2×10^5/assay) were washed with FACS buffer (PBS containing 1% BSA and 0.1% sodium azide), incubated with human AB type serum for 10 minutes on ice, and stained with PE-labeled human CD11b antibody (BD PharMingen, San Diego, Calif.). They were then analyzed using a FACSCalibur system (BD Biosciences, San Jose, Calif.), as described in “Harfi, I., S. D'Hondt, F. Corazza, and E. Sariban. 2004. J. Immunol. 173:4154-4163”.

The subject of test [2] is human neutrophils. Put plainly: Intracellular calcium mobilization (fura-2) in human neutrophils. In kind it is cell-based. Particulars: 1 M peptide. The method, then:
Neutrophils were stimulated with 1 μM of PACAP27 (SEQ ID NO:1), PACAP38 (SEQ ID NO:2), or VIP (SEQ ID NO:3), and calcium concentrations were measured for 10 min. In order to measure EKR phosphorylation, each peptide hormones was used with 1 μM concentrations for 5 min. For cAMP measurement, each peptide hormones was used with 1 μM concentrations for 10 min.
(§1) Intracellular calcium concentrations ([Ca^2+]i) were determined using Grynkiewicz's method with fura-2/AM, as described in “Grynkiewicz, G., M. Poenie, and R. Y. Tsien. 1985. […] J. Biol. Chem. 260:3440-3450”. Briefly, the cells prepared in Example 1.2 were incubated with 3 µM fura-2/AM at 37° C. for 50 minutes in fresh serum free RPMI 1640 medium with continuous stirring. The incubated cells (2×10^6) were aliquoted for each assay in Ca^2+-free Locke's solution (154 mM NaCl, 5.6 mM KCl, 1.2 mM MgCl2, 5 mM HEPES (pH 7.3), 10 mM glucose, and 0.2 mM EGTA). Fluorescence changes at 340 and 380 nm using a common emission wavelength of 500 nm were measured, and fluorescence ratios were converted to [Ca2+]i, as described in above Grynkiewicz, G. et al.

The target in test [3] is T1, FPRL1 (Homo sapiens, UniProt P25090).
T1 construct: expressed in transfected cells
T1 sequence (P25090 1-351): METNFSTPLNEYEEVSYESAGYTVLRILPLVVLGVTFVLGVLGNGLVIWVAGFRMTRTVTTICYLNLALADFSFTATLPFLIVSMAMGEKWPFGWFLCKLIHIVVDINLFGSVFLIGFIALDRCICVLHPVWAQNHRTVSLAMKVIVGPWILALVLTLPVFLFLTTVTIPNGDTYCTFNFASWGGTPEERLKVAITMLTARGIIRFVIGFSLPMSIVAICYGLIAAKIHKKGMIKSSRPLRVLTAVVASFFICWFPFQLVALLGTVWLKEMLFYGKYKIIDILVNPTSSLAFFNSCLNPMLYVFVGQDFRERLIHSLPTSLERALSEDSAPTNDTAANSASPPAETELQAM
As to the kind of experiment: Intracellular calcium mobilization (fura-2) in FPRL1/RBL cells. In kind it is cell-based. The method, then:
FPRL1-expressing rat basophile leukemia (RBL)-2H3 (FPRL1/RBL), FPR-expressing RBL-2H3 (FPR/RBL), and vector-transfected RBL-2H3 (vector/RBL) were donated by Dr. Richard D. Ye (University of Illinois). FPRL1/RBL, FPR/RBL, and vector/RBL were maintained at 37° C. in a humidified 5% CO2 atmosphere in high glucose DMEM supplemented with 20% (vol/vol) heat-inactivated fetal calf serum and G418 ([…]). FPRL1/RBL, FPR/RBL, and vector/RBL were sub-cultured every three days. The prepared cells were used in the following examples.
as §1

The subject of another test is RA FLS. Put plainly: Cell proliferation assay ([3H]-thymidine incorporation, cell counts) in RA FLS. In kind it is cell-based, human. The settings on record: SAA 5 μM, 72 h, PTX 100 ng/ml, U73122 1 μM, PD98059 50 μM, LY294002 50 μM. Here is the method: Fibroblast-like synoviocytes (FLS) were prepared from synovial samples obtained from patients suffering from RA and osteoarthritis (OA), all of whom were also undergoing total joint replacement surgery. The FLS were isolated from the synovial tissues in accordance with a previously described procedure (Cho, C. S., M. L. Cho, S. Y. Min, W. U. Kim, D. J. Min, S. S. Lee, S. H. Park, J. Choe, and H. Y. Kim. 2000. CD40 engagement on synovial fibroblast up-regulates production of vascular endothelial growth factor. J. Immunol. 164: 5055-5061).
In brief, fresh synovial tissues were minced into 2- to 3-mm pieces, then treated for 4 h with 4 mg/ml type I collagenase (Worthington Biochemical), and maintained in Dulbecco's Modified Eagle's Medium (DMEM) containing 10% FBS at 37° C. in an atmosphere containing 5% CO2. […] MH7A cells, the immortalized synoviocytes that harbor the SV40 T antigen, were grown in DMEM supplemented with 10% FBS, as previously described (Miyazawa, K, A. Mori, and H. Okudaira. 1998. Establishment and characterization of a novel human rheumatoid fibroblast-like synoviocyte line, MH7A, immortalized with SV40T antigen. J. Biochem. 124: 1153-1162), and then employed in some of the experiments. Human umbilical vein endothelial cells (HUVECs) were isolated from fresh human umbilical cords via collagenase (Worthington Biochemical) digestion, and then maintained in 20% FBS-containing M-199 medium (Sigma, St. Louis, Mo.), as previously described. All HUVECs were used after no more than five passages.
The RA FLS, OA FLS, and HUVECs were plated onto 24-well culture dishes at a density of 2×10^4 cells/well, and then permitted to attach overnight. After 24 h of serum starvation, the cells were treated for 72 h with a variety of mitogens. [^3H]-thymidine (1 μCi) was added to each of the wells prior to the final 6 h of incubation. Cell growth was also evaluated via cell counts. Control and mitogen-treated cells were harvested by trypsinization, and the number of cells was determined with a hemocytometer, under ×100 magnification.

The target of test [4] is T1, FPRL1. Put plainly: Ligand binding analysis, 125I-labeled PACAP27 on FPRL1/RBL cells. The settings on record: compared with PACAP27. The method, then:
The ligand binding analysis was performed as described in “Bae, Y. S., H. Y. Lee, E. J. Jo, J. I. Kim, H. K. Kang, R. D. Ye, J. Y. Kwak, and S. H. Ryu. 2004. J. Immunol. 173:607-614”. Briefly, FPRL1/RBL cells were seeded at 1×10^5 cells/well onto a 24 well plate and cultured overnight. After blocking them with blocking buffer (33 mM HEPES, pH 7.5, 0.1% BSA in RPMI 1640 medium) for 2 hours, 50 pM of ^125I-labeled PACAP27 (Perkin-Elmer, Boston, Mass.) was added to the cells in binding buffer (PBS containing 0.1% BSA), in the presence of the test peptides (cold PACAP27 (SEQ ID NO:1), truncated-PACAPs, and chimeric PACAPs), and then incubated for 3 hours at 4° C. with continuous shaking. The cells were then washed 5 times with ice-cold binding buffer, and 200 µL of lysis buffer (20 mM Tris, pH 7.5, 1% Triton X-100) was added to each well for 20 minutes at room temperature. Lysates were then collected and counted using a γ-ray counter.

The next test concerns HUVECs. Put plainly: HUVEC wounding migration assay. The settings on record: SAA 5 μM, WKYMVm 10 nM, VEGF 20 ng/ml; 12 h. The format is cell-based, human. Here is the method:
[…] After 12 h of incubation, migration was quantitated via counts of the cells migrating beyond the reference line. For the tube formation assay, the HUVECs were seeded on a layer of previously polymerized Matrigel (BD Biosciences) with SAA (SEQ ID NO:19) (5 μg/ml), WKYMVm (SEQ ID NO:5) peptide (10 nM), a specific ligand for FPRL1 (32, 33) or VEGF (20 ng/ml). After 18 h of incubation, the cell morphology was visualized via phase-contrast microscopy and photographed.

For test [5], the target named is T2, formyl peptide receptor-like 1 (FPRL1) (human, UniProt P25090 1-351).
T2 construct: in the other assays endogenous on human neutrophils, monocytes, synoviocytes (FLS, MH7A) or HUVECs; also called FPRL1/RBL; lipoxin A4 receptor (LXA4R)
T2 sequence: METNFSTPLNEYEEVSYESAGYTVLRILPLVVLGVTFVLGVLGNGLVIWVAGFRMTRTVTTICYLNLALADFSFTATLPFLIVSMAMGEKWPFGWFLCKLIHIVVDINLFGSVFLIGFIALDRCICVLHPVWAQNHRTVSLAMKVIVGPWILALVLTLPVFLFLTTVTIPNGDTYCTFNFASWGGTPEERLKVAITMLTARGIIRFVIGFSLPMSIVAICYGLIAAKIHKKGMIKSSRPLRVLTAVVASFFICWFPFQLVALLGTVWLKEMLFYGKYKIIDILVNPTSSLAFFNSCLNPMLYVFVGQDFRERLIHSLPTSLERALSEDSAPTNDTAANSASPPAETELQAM
Put plainly: cell-based or functional assay.

The target in test [6] is T2, formyl peptide receptor-like 1 (FPRL1). As to the kind of experiment: displacement of 125I-PACAP27 by unlabeled peptide on FPRL1/RBL cells.

Where no end group is shown, it is not given here.

Take “polymyxin b-treated PACAP27: PACAP27 pretreated with 5 μM polymyxin b for 1 hour in 37° C. (HSDGIFTDSYSRYRKQMAVKKYLAAVL; not fully specified; ends and bridges not checked; listed as Homo sapiens)”: the “CD11b up-regulation compared with PACAP27” value with human neutrophils [1] was “no difference”. Regarding “VIP: vasoactive intestinal peptide, SEQ ID NO:3”, in the test with human neutrophils [2], the “[Ca2+]i increase in human neutrophils” value is “neither PACAP38 (SEQ ID NO:2) nor VIP (SEQ ID NO:3) increased [Ca2+]i”. The “[Ca2+]i increase / activation of FPRL1” value with FPRL1 [3] is recorded as “does not interact with FPRL1”. Regarding `COc1cccc(-c2cc(=O)c3ccccc3o2)c1N` [PD98059], the “blockage of the proliferative and anti-apoptotic activities of SAA” value with RA FLS is given as “almost complete blockage”. The same measure, in the same setting: the same measure for `COc1ccc2c(c1)CC[C@@H]1[C@@H]2CC[C@]2(C)[C@@H](NCCCCCCN3C(=O)C=CC3=O)CC[C@@H]12` [U73122]: “almost complete blockage”. “tPACAP9-27: truncated PACAP27, SEQ ID NO:7 (SYSRYRKQMAVKKYLAAVL; ends and bridges not checked; listed as Homo sapiens)”: in the test with FPRL1 [4], the “binding affinity to FPRL1 (in words)” value was “almost the same binding affinity as PACAP27”. Also, the “[Ca2+]i increase / activation of FPRL1” value in the test with FPRL1 [3] is given as “partially activate”. With VEGF, the “migratory activity of HUVECs relative to control cells” value with HUVECs was “approximately 3 times”.

“boiled PACAP27: PACAP27 heat-inactivated for 10 minutes in boiling water (HSDGIFTDSYSRYRKQMAVKKYLAAVL; not fully specified; ends and bridges not checked; listed as Homo sapiens)”: the “CD11b up-regulation compared with PACAP27” value with human neutrophils [1] is recorded as “no difference”. For the molecule “PACAP38: pituitary adenylate cyclase-activating polypeptide, 38 amino acids, SEQ ID NO:2 (HSDGIFTDSYSRYRKQMAVKKYLAAVLGKRYKQRVKNK; ends and bridges not checked; listed as Homo sapiens)”, the “[Ca2+]i increase in human neutrophils” value in the test with human neutrophils [2] is “neither PACAP38 (SEQ ID NO:2) nor VIP (SEQ ID NO:3) increased [Ca2+]i”.

With “Serum amyloid A (SAA) (from UniProt P0DJI8 19-94) (ligand)”, the intracellular Ca2+ in RA FLS (Fluo-3, calcium imaging), SAA 3 µM in test [5] is 2.3 fold.

B1: tPACAP9-27 (truncated PACAP) (peptide)
peptide: SYSRYRKQMAVKKYLAAVL
modifications: ends and bridges not checked
notes: Synthetic truncation of PACAP27; the range is counted on PACAP27, by the peptide's name
Turning to B1, in test [6], the binding result was “binds”.

B2: cPACAP9VIP (chimeric PACAP) (peptide)
peptide: HSDGIFTDNYSRYRKQMAVKKYLAAVL
modifications: ends and bridges not checked
notes: PACAP27 with the VIP residue at position 9; bought from GenScript
As to B2, in test [6], the affinity, expressed as Kd, was 51.2 nM.

B3: cPACAP13VIP (chimeric PACAP) (peptide)
peptide: HSDGIFTDSYSRLRKQMAVKKYLAAVL
modifications: ends and bridges not checked
notes: PACAP27 with the VIP residue at position 13; bought from GenScript
As for B3, the equilibrium dissociation constant (Kd) in test [6] turned out to be 51.2 nM.
